# According to article PMC4741798, “Imaging of carbonic anhydrase IX with an ^111In-labeled dual-motif inhibitor” (Oncotarget, 2015):
# “And” between values parts separate entries of the source, which are not always exact repeats. Equal values may be shown once. “Also recorded” adds a separate entry of the source.
# Columns and labels:
# SK-RC-52 xenografts = assay: Biodistribution in mice bearing SK-RC-52 xenografts; assay type: in vivo; conditions: for Tumor/mm (muscle) ratio / Biodistribution: Tumor / Biodistribution: Bladder / Biodistribution: Blood / Biodistribution: Brain / Biodistribution: Fat / Biodistribution: Heart / Biodistribution: Kidney (kid) / Biodistribution: Liver / Biodistribution: Lung / Biodistribution: Muscle (mm) / Biodistribution: Pancreas / Biodistribution: Sm. intestine / Biodistribution: Spleen / Biodistribution: Stomach / Tumor/blood ratio / Tumor/kid (kidney) ratio: n = 5; for Biodistribution: Tumor: SK-RC-52 tumor
# Procedure: Mice bearing SK-RC-52 xenografts within the lower left flank were injected intravenously with 740 kBq (20 μCi) of [^111In]XYIMSR-01 in 200 μL of PBS. For in vivo competition (binding specificity) studies, tumor-bearing mice were injected with 740 kBq (20 μCi) of [^111In]XYIMSR-01 and 200 nmole of 1 in 200 μL of PBS concurrently. At 1 h, 4 h, 8 h, 24 h and 48 h post-injection, mice were sacrificed by cervical dislocation and the blood was immediately collected by cardiac puncture. Heart, lungs, pancreas, spleen, fat, brain, muscle, small intestines, liver, stomach, kidney, urinary bladder, and tumor were collected. Each organ was weighed and the tissue radioactivity was measured with an automated gamma counter (1282 Compugamma CS, Pharmacia/LKBNuclear, Inc., Mt. Waverly, Vic. Australia). The percentage of injected dose per gram of tissue (% ID/g) was calculated by comparison with samples of a standard dilution of the initial dose. All measurements were corrected for radioactive decay.
# Data were expressed as mean ± standard deviation (SD). Prism software (GraphPAD, San Diego, California) was used to determine statistical significance. Statistical significance was calculated using a paired t test. P-values < 0.0001 were considered significant.
# [1] = tested on: CAIX-expressing SK-RC-52 tumors; assay: SPECT/CT imaging of mice with SK-RC-52 tumors; assay type: in vivo; conditions: 14.8 MBq via tail vein
# Procedure: Mice harboring subcutaneous SK-RC-52 tumors with the lower left flank were injected with 14.8 MBq (400 μCi) of [^111In]XYIMSR-01 in 250 μL of PBS (pH = 7.0) intravenously (tail vein). Anesthesia was then induced with 3% isofluorane and maintained at 2% isoflurane. Physiologic temperature was maintained with an external light source while the mouse was on the gantry. Imaging employed a CT-equipped Gamma Medica-Ideas SPECT scanner (Northridge, CA). SPECT data were acquired in 64 projections at 65 s per projection using medium energy pinhole collimators. A CT scan was performed in 512 projections at the end of each SPECT scan for anatomic co-registration. CT and SPECT scans were performed at 1, 4, 8, 24, and 48 h post-injection of [^111In]XYIMSR-01. Imaging data sets were reconstructed using the manufacturer's software. Display of images utilized Amide software (Dice Holdings, Inc. NY).
# [2] = 48 h + Block (co-injected 200 nmole of 1)
# [3] = plateau followed by one phase decay fit of Table 1 data
smiles,measurement,setting,value
CC(CCC(=O)N[C@@H](CC(=O)N[C@@H](CC(=O)N[C@@H](CCCCn1cc(CCCC(=O)Nc2nnc(S(N)(=O)=O)s2)nn1)C(=O)NCCOCCOCCNC(=O)CN1CCN(CC(=O)[O-])CCN(CC(=O)[O-])CCN(CC(=O)[O-])CC1)C(=O)O)C(=O)O)(c1ccc(O)cc1)c1ccc(O)cc1.[111In+3] [[^111In]XYIMSR-01],Tumor/mm (muscle) ratio,SK-RC-52 xenografts; 24 h + Block (co-injected 200 nmole of 1),91.4 ± 11.1
same,tumor/liver ratio,SK-RC-52 xenografts; 24 h post-injection,8.5
same,Biodistribution: Tumor,"SK-RC-52 xenografts; 24 h post-injection, i.v.",25.62 ± 17.67 %ID/g
same,Biodistribution: Bladder,"SK-RC-52 xenografts; 24 h post-injection, i.v.",0.74 ± 0.17 %ID/g
same,Biodistribution: Blood,"SK-RC-52 xenografts; 24 h post-injection, i.v.",0.15 ± 0.02 %ID/g
same,Biodistribution: Brain,"SK-RC-52 xenografts; 24 h post-injection, i.v.",0.71 ± 0.85 %ID/g
same,Biodistribution: Fat,"SK-RC-52 xenografts; 24 h post-injection, i.v.",0.28 ± 0.19 %ID/g
same,Biodistribution: Heart,"SK-RC-52 xenografts; 24 h post-injection, i.v.",1.16 ± 0.20 %ID/g
same,Biodistribution: Kidney (kid),"SK-RC-52 xenografts; 24 h post-injection, i.v.",15.29 ± 1.69 %ID/g
same,Biodistribution: Liver,"SK-RC-52 xenografts; 24 h post-injection, i.v.",3.02 ± 3.46 %ID/g
same,Biodistribution: Lung,"SK-RC-52 xenografts; 24 h post-injection, i.v.",11.01 ± 3.71 %ID/g
same,Biodistribution: Muscle (mm),"SK-RC-52 xenografts; 24 h post-injection, i.v.",0.35 ± 0.12 %ID/g
same,Biodistribution: Pancreas,"SK-RC-52 xenografts; 24 h post-injection, i.v.",0.69 ± 0.18 %ID/g
same,Biodistribution: Sm. intestine,"SK-RC-52 xenografts; 24 h post-injection, i.v.",2.11 ± 0.33 %ID/g
same,Biodistribution: Spleen,"SK-RC-52 xenografts; 24 h post-injection, i.v.",0.69 ± 0.39 %ID/g
same,Biodistribution: Stomach,"SK-RC-52 xenografts; 24 h post-injection, i.v.",3.31 ± 1.25 %ID/g
same,Tumor/blood ratio,SK-RC-52 xenografts; 24 h post-injection,178 and 178.1 ± 145.4
same,Tumor/kid (kidney) ratio,SK-RC-52 xenografts; 24 h post-injection,1.7 and 1.7 ± 1.2
same,Tumor/mm (muscle) ratio,SK-RC-52 xenografts; 24 h post-injection,68 and 68.4 ± 29.0
same,Biodistribution: Tumor,SK-RC-52 xenografts; [2],1 %ID/g and 1.22 ± 0.54 %ID/g
same,Biodistribution: Bladder,SK-RC-52 xenografts; [2],0.14 ± 0.03 %ID/g
same,Biodistribution: Blood,SK-RC-52 xenografts; [2],0.03 ± 0.00 %ID/g
same,Biodistribution: Fat,SK-RC-52 xenografts; [2],0.03 ± 0.01 %ID/g
same,Biodistribution: Heart,SK-RC-52 xenografts; [2],0.04 ± 0.01 %ID/g
same,Biodistribution: Kidney (kid),SK-RC-52 xenografts; [2],0.45 ± 0.09 %ID/g
same,Biodistribution: Liver,SK-RC-52 xenografts; [2],0.13 ± 0.04 %ID/g
same,Biodistribution: Lung,SK-RC-52 xenografts; [2],0.09 ± 0.02 %ID/g
same,Biodistribution: Muscle (mm),SK-RC-52 xenografts; [2],0.02 ± 0.00 %ID/g
same,Biodistribution: Pancreas,SK-RC-52 xenografts; [2],0.03 ± 0.01 %ID/g
same,Biodistribution: Sm. intestine,SK-RC-52 xenografts; [2],0.08 ± 0.02 %ID/g
same,Biodistribution: Spleen,SK-RC-52 xenografts; [2],0.11 ± 0.03 %ID/g
same,Biodistribution: Stomach,SK-RC-52 xenografts; [2],0.14 ± 0.03 %ID/g
same,Tumor/blood ratio,SK-RC-52 xenografts; [2],45.4 ± 13.8
same,Tumor/kid (kidney) ratio,SK-RC-52 xenografts; [2],2.7 ± 0.8
same,Tumor/mm (muscle) ratio,SK-RC-52 xenografts; [2],75.1 ± 17.7
same,Biodistribution: Tumor,"SK-RC-52 xenografts; 48 h post-injection, i.v.",13.92 ± 6.67 %ID/g
same,Biodistribution: Bladder,"SK-RC-52 xenografts; 48 h post-injection, i.v.",0.38 ± 0.18 %ID/g
same,Biodistribution: Blood,"SK-RC-52 xenografts; 48 h post-injection, i.v.",0.06 ± 0.02 %ID/g
same,Biodistribution: Brain,"SK-RC-52 xenografts; 48 h post-injection, i.v.",0.41 ± 0.05 %ID/g
same,Biodistribution: Fat,"SK-RC-52 xenografts; 48 h post-injection, i.v.",0.25 ± 0.08 %ID/g
same,Biodistribution: Heart,"SK-RC-52 xenografts; 48 h post-injection, i.v.",0.84 ± 0.16 %ID/g
same,Biodistribution: Kidney (kid),"SK-RC-52 xenografts; 48 h post-injection, i.v.",8.78 ± 1.89 %ID/g
same,Biodistribution: Liver,"SK-RC-52 xenografts; 48 h post-injection, i.v.",1.65 ± 0.26 %ID/g
same,Biodistribution: Lung,"SK-RC-52 xenografts; 48 h post-injection, i.v.",9.22 ± 1.25 %ID/g
same,Biodistribution: Muscle (mm),"SK-RC-52 xenografts; 48 h post-injection, i.v.",0.39 ± 0.28 %ID/g
same,Biodistribution: Pancreas,"SK-RC-52 xenografts; 48 h post-injection, i.v.",0.59 ± 0.18 %ID/g
same,Biodistribution: Sm. intestine,"SK-RC-52 xenografts; 48 h post-injection, i.v.",1.22 ± 0.44 %ID/g
same,Biodistribution: Spleen,"SK-RC-52 xenografts; 48 h post-injection, i.v.",0.67 ± 0.13 %ID/g
same,Biodistribution: Stomach,"SK-RC-52 xenografts; 48 h post-injection, i.v.",1.82 ± 0.43 %ID/g
same,Tumor/blood ratio,SK-RC-52 xenografts; 48 h post-injection,212.0 ± 41.4
same,Tumor/kid (kidney) ratio,SK-RC-52 xenografts; 48 h post-injection,1.5 ± 0.5
same,Tumor/mm (muscle) ratio,SK-RC-52 xenografts; 48 h post-injection,52.0 ± 21.0
same,Calculated biological excretion half-life: Bladder,SK-RC-52 xenografts; [3],3.730 hr
same,Calculated biological excretion half-life: Blood,SK-RC-52 xenografts; [3],3.246 hr
same,Calculated biological excretion half-life: Brain,SK-RC-52 xenografts; [3],3.926 hr
same,Calculated biological excretion half-life: Fat,SK-RC-52 xenografts; [3],1.536 hr
same,Calculated biological excretion half-life: Heart,SK-RC-52 xenografts; [3],3.538 hr
same,Calculated biological excretion half-life: Kidney,SK-RC-52 xenografts; [3],4.344 hr
same,Calculated biological excretion half-life: Liver,SK-RC-52 xenografts; [3],4.243 hr
same,Calculated biological excretion half-life: Lung,SK-RC-52 xenografts; [3],5.602 hr
same,Calculated biological excretion half-life: Muscle,SK-RC-52 xenografts; [3],2.534 hr
same,Calculated biological excretion half-life: Pancreas,SK-RC-52 xenografts; [3],3.179 hr
same,Calculated biological excretion half-life: SK-RC-52 tumor,SK-RC-52 xenografts; [3],12.27 hr
same,Calculated biological excretion half-life: Small intestine,SK-RC-52 xenografts; [3],5.597 hr
same,Calculated biological excretion half-life: Stomach,SK-RC-52 xenografts; [3],3.908 hr
same,retention of radioactivity seen by SPECT/CT at late time points (in words),[1]; 24-48 h post-injection,"nearly all of the radioactivity in the kidneys and other organs had been eliminated, with tumor still retaining significant amounts of radiotracer; also recorded: Retention of radioactivity was exclusively observed in tumors by 48 h"
same,tumor uptake seen by SPECT/CT (in words),[1]; two mice,radiotracer uptake was observed within the tumors at 1 h post-injection; also recorded: radiotracer uptake in tumor as early as 1 h post-injection
